What was measured:
[1] = tested on: SCaBER xenograft (bladder cancer), NMRI nude mice; assay: Xenograft anti-tumor efficacy; type: in vivo; conditions: final tumor weight, TPP-2090 10 mg/kg twice weekly for 4 weeks
[2] = tested on: Ku-19-19 xenograft (bladder cancer); assay: Xenograft anti-tumor efficacy; type: in vivo, mice; conditions: final tumor weight, TPP-2090 10 mg/kg twice weekly for 4 weeks
Method: (§1) After tumor growth to a size of approximately 40 mm^2 mice were randomized into control and treatment groups with a respective group size of n=8-10. Mice were treated with various doses of anti-TWEAKR antibodies diluted in PBS by intravenous injection (i.v.) into the tail vein with a twice per week schedule (q4dx3: applications twice per week, three applications in total; q4dx8: applications twice per week, eight applications in total). Combination therapy partners such as Regorafenib (10 mg/kg daily, per os) and the PI3K-inhibitor 1 (10 mg/kg, BID, 2d on, 5d off (applications twice daily on two consecutive days, followed by five days without treatment), i.v.) were diluted in their respective formulations whereas the standard of care therapies Irinotecan (5 mg/kg, 4d on, 3d off (applications once daily on four consecutive days followed by three days without treatment) i.v.) and Paclitaxel (16 mg/kg, q7dx4 (applications once per week, four applications in total), i.v.) were diluted in 0.9% NaCl. Animals injected with PBS served as the control (vehicle) group. The applied volume of the compounds was 5 ml/kg body weight per mouse.
(§2) Tumor growth was monitored 2-3 times per week by caliper measurement (length×width in mm) as well as body weight (in g). […]

[3] = tested on: BXF1228 patient-derived bladder cancer model; assay: Xenograft anti-tumor efficacy; type: in vivo, mice; conditions: final tumor weight, TPP-2090 10 mg/kg twice weekly for 4 weeks
[4] = tested on: BXF1352 patient-derived bladder cancer model; assay: Xenograft anti-tumor efficacy; type: in vivo, mice; conditions: final tumor weight, TPP-2090 10 mg/kg twice weekly for 4 weeks
Method: as §1, §2

[5] = tested on: Co5896 patient-derived colorectal cancer model; assay: Xenograft anti-tumor efficacy; type: in vivo, mice; conditions: tumor weight, TPP-2090 10 mg/kg twice weekly for 4 weeks
Method: as §1
(§3) Tumor growth was monitored 2-3 times per week by caliper measurement (length×width in mm) as well as body weight (in g). At the end of study tumors were dissected, weighted and used for the calculation of tumor-to-control (T/C) ratios (mean tumor weight of treated animals divided by mean tumor weight of control/vehicle animals). […] 2×10^6 tumor cells in 100% Matrigel were s.c. inoculated in female nude mice. After 7d established tumors with a size of about 40 mm^2 were treated with 0.3 mg/kg, 1 mg/kg and 3 mg/kg of antibodies (i.v., q4dx3: applications twice per week, three applications in total).
(§4) Animal studies were conducted as described in example 8 for further human colorectal cancer tumor cell lines Colo205 and LoVo and for further human colorectal cancer patient-derived models Co7553, Co5896, Co5676, Co5841, CXF 1103 and CXF 533. […] The formulation of regorafenib is described in example 8.

[6] = tested on: Colo205 xenograft (colorectal cancer); assay: Xenograft anti-tumor efficacy; type: in vivo, mice; conditions: tumor weight, TPP-2090 10 mg/kg twice weekly for 4 weeks
Method: as §1, §3, §4

[7] = tested on: LoVo xenograft (colorectal cancer); assay: Xenograft anti-tumor efficacy; type: in vivo, mice; conditions: tumor weight, TPP-2090 10 mg/kg twice weekly for 4 weeks
Method: as §1, §3, §4

[8] = biological target: T1, TWEAKR protein (TPP-2305) (Homo sapiens, UniProt Q9NP84); assay: Biacore monovalent KD with TWEAKR protein; type: binding
T1 construct: TPP-2305; hTNFRSF12Aaa28-80; Human; 30R-AT080; 168; purchased Fitzgerald Inc 30R-AT080
Method: Binding affinities of anti-TWEAKR antibodies were determined by surface plasmon resonance analysis on a Biacore T100 instrument (GE Healthcare Biacore, Inc.). Antibodies were immobilized onto a CM5 sensor chip through an indirect capturing reagent, anti-human IgG(Fc). Reagents from the “Human Antibody Capture Kit” (BR-1008-39, GE Healthcare Biacore, Inc.) were used as described by the manufacturer. Anti-TWEAKR antibodies were injected at a concentration of 10 μg/ml at 10 μl/min for 10 sec.
Sensorgrams were generated after in-line reference cell correction followed by buffer sample subtraction. The dissociation equilibrium constant (KD) was calculated based on the ratio of association (kon) and dissociation rated (koff) constants, obtained by fitting sensorgrams with a first order 1:1 binding model.

[9] = tested on: 786-O cells; assay: FACS binding to cell surface; design: species or system human; conditions: 10 μg/ml
Method: (§5) To determine the binding characteristics of the anti-TWEAKR antibodies on mouse and human cancer cell lines, binding was tested by flow cytometry to a panel of cell lines. Adherent cells were washed twice with PBS without Ca and Mg (Biochrom #L1825: aqueous solution containing 8000 mg/l NaCl, 200 mg/l KCl, 1150 mg/l Na2HPO4, and 200 mg/l KH2PO4) and detached by enzyme-free PBS based cell dissociation buffer (Invitrogen). Cells were suspended at approximately 10^5 cells/well in FACS buffer (PBS without Ca/Mg, containing 3% FCS, Biochrom). Cells were centrifuged (250 g, 5 min, 4° C.) and supernatant discarded. Cells were resuspended in dilutions of the antibodies of interest (10 μg/ml in 80 μl if not indicated otherwise) in FACS buffer, and incubated on ice for 1 h. In the following cells were washed once with 1000 cold FACS buffer and 80 μl secondary antibody diluted at 1:150 (PE goat anti-human IgG, Dianova #109-115-098, or PE Goat Anti-Mouse IgG, Jackson Immuno Research #115-115-164) was added. After incubation for 1 h on ice cells were again washed with cold FACS buffer, resuspended in 1000 FACS buffer and analyzed by flow cytometry using a FACS-Array (BD Biosciences). Results are calculated as Geo Mean of fluorescence detected by the antibody of interest subtracted by background fluorescence as measured by detection with the secondary antibody alone. Values are scored according to the following system: Geo Mean−Geo Mean of secondary antibody alone >10: +, >100: ++, >1000: +++, 10000: ++++, close to category border in ( ).

[10] = tested on: A375 cells; assay: FACS binding to cell surface; design: species or system human; conditions: 10 μg/ml
Method: as §5

[11] = tested on: HT-29 cells; assay: FACS binding to cell surface; design: species or system human; conditions: HT29; 10 μg/ml
Method: as §5

[12] = tested on: NCI-H322 cells; assay: FACS binding to cell surface; design: species or system human; conditions: 10 μg/ml
Method: as §5

[13] = tested on: SK-OV-3 cells; assay: FACS binding to cell surface; design: species or system human; conditions: SKOV-3; 10 μg/ml
Method: as §5

[14] = tested on: WiDr cells; assay: FACS binding to cell surface; design: species or system human; conditions: 10 μg/ml
Method: as §5

[15] = tested on: 786-O cells; assay: Inhibition of proliferation (Cell Titer Glo); type: cell-based, human; conditions: 96h, 100 μg/ml antibody or *100 ng/ml TWEAK
Method: (§6) Therefore cells were plated in 96well plates in 750 assay medium (growth media from Table 21, plus 100 ng/ml IFN gamma for 786-O cells) at the following cell numbers: WiDr cells 3000 cells/well, 786-O cells 2500 cells/well. 24 h later cells were incubated with anti-TWEAKR antibodies (see Table 26), recombinant human TWEAK or isotype control IgG (not shown) at the indicated concentrations (antibodies from 0.03-300 μg/ml, TWEAK 100 or 300 ng/ml). At the time of antibody addition cell viability was determined in sister plates (time point zero): therefore 750/well CTG solution (Promega Cell Titer Glo solution (catalog # G755B and G756B) was added to the cells, incubated for 10 minutes and luminescence was read on a Victor V (Perkin Elmer). 96 h after incubation with the agents, cell viability was determined in the assay plates by addition of 100 μl/well CTG solution, 10 min incubation and reading of luminescence. Proliferation in control wells was calculated by subtracting time zero values from the luminescence values in the untreated control wells. % of cell proliferation was calculated in the compound treated wells as compared to the untreated control wells.
(§7) To evaluate, whether this strong anti-proliferative activity can also be observed in a broader cell panel, in addition LOVO, NCI-H1975, SW-480 (all 3000 cells/well), HT-29 (4000 cells/well), A253 and SK-OV3 (both 2500 cells/well) cells were incubated with 100 μg/ml anti-TWEAKR antibodies or TWEAK ligand for the time periods as indicated in Table 27. All cells were seeded in the growth media indicated in Table 21 and for all cells except for WiDr cells 100 ng/ml IFNgamma was added to the assay medium when seeding the cells. The percentage of growth inhibition for treated cells as compared to proliferation in untreated control cells was measured and calculated as described above. As shown in Table 27 the antibodies of the current invention are more efficacious as compared to other known antibodies in inhibiting proliferation of various cancer cell lines at 100 μg/ml. In most experiments the antibodies of the current invention also show equal or stronger efficacy as compared to 100-300 ng/ml TWEAK ligand. Thus, the antibodies described in this invention are unique in their activity to induce apoptosis and proliferation inhibition in a broad panel of cancer cell lines.

[16] = tested on: A253 cells; assay: Inhibition of proliferation (Cell Titer Glo); type: cell-based, human; conditions: 72h, 100 μg/ml antibody or **300 ng/ml TWEAK
Method: as §6, §7

[17] = tested on: HT-29 cells; assay: Inhibition of proliferation (Cell Titer Glo); type: cell-based, human; conditions: 24h, 100 μg/ml antibody or **300 ng/ml TWEAK
Method: as §6, §7

[18] = tested on: Lovo cells; assay: Inhibition of proliferation (Cell Titer Glo); type: cell-based, human; conditions: 72h, 100 μg/ml antibody or *100 ng/ml TWEAK
Method: as §6, §7

[19] = tested on: NCI-H1975 cells; assay: Inhibition of proliferation (Cell Titer Glo); type: cell-based, human; conditions: 72h, 100 μg/ml antibody or *100 ng/ml TWEAK
Method: as §6, §7

[20] = tested on: SK-OV3 cells; assay: Inhibition of proliferation (Cell Titer Glo); type: cell-based, human; conditions: 96h, 100 μg/ml antibody
Method: as §6, §7

[21] = tested on: SW480 cells; assay: Inhibition of proliferation (Cell Titer Glo); type: cell-based, human; conditions: 72h, 100 μg/ml antibody or *100 ng/ml TWEAK
Method: as §6, §7

[22] = tested on: WiDr cells; assay: Inhibition of proliferation (Cell Titer Glo); type: cell-based, human; conditions: 96h, 100 μg/ml antibody, no IFN gamma
Method: All cells were seeded in the growth media indicated in Table 21 and for all cells except for WiDr cells 100 ng/ml IFNgamma was added to the assay medium when seeding the cells. […]

[23] = tested on: A375 cells; assay: IL-8 secretion ELISA; type: cell-based, human; conditions: 100 μg/ml, 24 h
Method: Therefore A375 cells were plated at 2500 cells/well in 96well plates in growth medium DMEM (Biochrom;# FG 0435, with stable Glutamin), 10% FCS. 24 h later cells were incubated with anti-TWEAKR antibodies, recombinant human TWEAK at various concentrations as indicated or corresponding isotype control IgG. 24 h after start of the incubation with the antibodies, cell supernatant or dilutions thereof were added to the Capture Elisa Plate of the human CXCL8/IL-8 ELISA Kit (R&D Systems DY208) and incubated over night at 4° C. by shaking 300 rpm. On the next day, samples were analyzed by using the human CXCL8/IL-8-ELISA Kit (R&D Systems DY208) according to the manufacturer's instructions. Optical density was measured at 450 nm (Tecan Spectra, Rainbow) together with background correction. To calculate absolute levels of IL-8 a standard curve using recombinant human IL-8 protein was applied according to the manufacturer's recommendations (R&D Systems).

[24] = biological target: TWEAKR (Homo sapiens, UniProt Q9NP84); conditions: published data; read-out: KD / binding affinity to TWEAKR (published); cited from earlier work

## Nc1ccn([C@@H]2O[C@H](CO)[C@@H](O)C2(F)F)c(=O)n1 [Gemcitabine, gemcitabine, reference compound]
[1]
  T/C: 0.85
[2]
  T/C: 0.07
[3]
  T/C: 0.93

## N.N.[Cl][Pt][Cl] [Oxaliplatin/Cisplatin, cisplatin, reference compound]
[1]
  T/C: 1.22
[4]
  T/C: 0.85
[3]
  T/C: 0.84

## CNC(=O)c1cc(Oc2ccc(NC(=O)Nc3ccc(Cl)c(C(F)(F)F)c3)c(F)c2)ccn1 [Regorafenib]
[5]
  Final T/C: 0.67
[6]
  Final T/C: 0.42
[7]
  Final T/C: 0.63

## PDL-192(TPP-1104): reference agonistic anti-TWEAKR antibody, human IgG1, variable domains from WO2009/020933; SEQ ID NO 127/128 [reference compound]
[8]; first order 1:1 binding model
  ka: 1e+07 M⁻¹ s⁻¹
  kd: 0.038 s⁻¹
[8]; monovalent KD
  Kd: 3.7 nM
[9]
  GeoMean of Fluorescence minus GeoMean with the secondary antibody only: 25283
[10]
  GeoMean of Fluorescence minus GeoMean with the secondary antibody only: 865
[11]
  GeoMean of Fluorescence minus GeoMean with the secondary antibody only: 2127
[12]
  GeoMean of Fluorescence minus GeoMean with the secondary antibody only: 330
[13]
  GeoMean of Fluorescence minus GeoMean with the secondary antibody only: 4053
[14]
  GeoMean of Fluorescence minus GeoMean with the secondary antibody only: 3563
[15]
  % Inhibition of proliferation: 41%
[16]
  % Inhibition of proliferation: 87%
[17]
  % Inhibition of proliferation: 62%
[18]
  % Inhibition of proliferation: 49%
[19]
  % Inhibition of proliferation: 46%
[20]
  % Inhibition of proliferation: 44%
[21]
  % Inhibition of proliferation: 27%
[22]
  % Inhibition of proliferation: 12%
[23]
  IL-8 release, % of the activation as compared to 300 ng/ml TWEAK ligand: 66%
[24]
  Kd: 5.5 nM

— patent US20160237160A1, “ANTI-TWEAKR ANTIBODIES AND USES THEREOF” (BAYER PHARMA AKTIENGESELLSCHAFT, priority 2013, published 2016)
